Measurements from PubChem BioAssay (NCI).
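Results reflect a 48-hour exposure of cells in 96-well plates to compound at five concentrations. At the TGI there is no net growth.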

Columns and labels:
Test in all cases: growth of human tumour cells (NCI), 48 h
[1] = tested on: HOP-62 NSCLC
[2] = tested on: OVCAR-5 ovarian
[3] = tested on: A498 renal
[4] = tested on: DMS 114 small cell lung
[5] = tested on: TK-10 renal
[6] = tested on: SW-620 colon
[7] = tested on: 786-0 renal
[8] = tested on: SNB-78 CNS
[9] = tested on: HOP-92 NSCLC
[10] = tested on: RPMI-8226 leukemia
[11] = tested on: NCI-H522 lung
[12] = tested on: SF-295 CNS
[13] = tested on: SF-268 CNS
[14] = tested on: M14 melanoma
[15] = tested on: MALME-3M melanoma
[16] = tested on: UO-31 renal
[17] = tested on: RXF-631 renal
[18] = tested on: HL-60(TB) leukemia
[19] = tested on: CAKI-1 renal
[20] = tested on: NCI-H226 lung
[21] = tested on: K-562 leukemia
[22] = tested on: HCC-2998 colon
[23] = tested on: LXFL 529 NSCLC
[24] = tested on: ACHN renal
[25] = tested on: IGROV1 ovarian
[26] = tested on: OVCAR-3 ovarian
[27] = tested on: LOX IMVI melanoma
[28] = tested on: SF-539 CNS
[29] = tested on: SK-MEL-2 melanoma
[30] = tested on: OVCAR-4 ovarian
[31] = tested on: UACC-62 melanoma
[32] = tested on: EKVX NSCLC
[33] = tested on: XF 498 CNS
[34] = tested on: RXF 393 renal
[35] = tested on: DLD-1 colon
[36] = tested on: SNB-75 CNS
[37] = tested on: OVCAR-8 ovarian
[38] = tested on: NCI-H460 lung
[39] = tested on: NCI-H23 lung
[40] = tested on: A549 NSCLC
[41] = tested on: SK-OV-3 ovarian
[42] = tested on: SK-MEL-5 melanoma
[43] = tested on: DMS 273 small cell lung
[44] = tested on: COLO 205 colon
[45] = tested on: SNB-19 CNS
[46] = tested on: UACC-257 melanoma
[47] = tested on: HT29 colon
[48] = tested on: HCT-15 colon
[49] = tested on: KM12 colon
[50] = tested on: HCT-116 colon
[51] = tested on: SN12C renal
[52] = tested on: U251 CNS
[53] = tested on: CCRF-CEM leukemia
[54] = tested on: KM20L2 colon

CC1=C(C(=O)CC(=O)C(=O)Nc2ccccc2C(F)(F)F)Sc2ccccc2N1
TGI [1]: 96.8 µM
TGI [2]: > 100 µM
TGI [3]: > 100 µM
TGI [4]: > 100 µM
TGI [5]: > 100 µM
TGI [6]: > 100 µM
TGI [7]: > 100 µM
TGI [8]: > 100 µM
TGI [9]: 83.5 µM
TGI [10]: > 100 µM
TGI [11]: 68.4 µM
TGI [12]: > 100 µM
TGI [13]: 71.4 µM
TGI [14]: > 100 µM
TGI [15]: > 100 µM
TGI [16]: 61.7 µM
TGI [17]: > 100 µM
TGI [18]: > 100 µM
TGI [19]: > 100 µM
TGI [20]: 87.8 µM
TGI [21]: > 100 µM
TGI [22]: > 100 µM
TGI [23]: > 100 µM
TGI [24]: > 100 µM
TGI [25]: > 100 µM
TGI [26]: > 100 µM
TGI [27]: > 100 µM
TGI [28]: > 100 µM
TGI [29]: > 100 µM
TGI [30]: > 100 µM
TGI [31]: > 100 µM
TGI [32]: > 100 µM
TGI [33]: > 100 µM
TGI [34]: 66.2 µM
TGI [35]: > 100 µM
TGI [36]: 80.1 µM
TGI [37]: > 100 µM
TGI [38]: > 100 µM
TGI [39]: 85.6 µM
TGI [40]: > 100 µM
TGI [41]: > 100 µM
TGI [42]: > 100 µM
TGI [43]: > 100 µM
TGI [44]: > 100 µM
TGI [45]: > 100 µM
TGI [46]: > 100 µM
TGI [47]: > 100 µM
TGI [48]: > 100 µM
TGI [49]: > 100 µM
TGI [50]: > 100 µM
TGI [51]: > 100 µM
TGI [52]: > 100 µM
TGI [53]: > 100 µM
TGI [54]: > 100 µM
